SMILES strings stand for the structures. Like-named read-outs stand apart in the source and are kept apart here. Bounds are passed on as bounds.

Results on 45 molecules are retold here after US9034866B2 (Genentech, Inc., priority 2012, dated 2015).

The target in this experiment is nuclear factor-kappa B (NF-kB)-inducing kinase (NIK) (Homo sapiens (Human), UniProt Q99558). The experiment is described as follows: NIK Enzyme Inhibition Assay (Transcreener ADP fluorescence polarization). The following applies: read-out: NIK ADP-FP (Ki uM). It is filed as biochemical. The protocol: NIK Enzyme Inhibition Assay: The ability of the nuclear factor-kappa B (NF-kB)-inducing kinase (NIK) to catalyze the hydrolysis of adenosine-5′-triphosphate (ATP) was monitored using the Transcreener ADP (adenosine-5′-diphosphate) assay (BellBrook Labs). Purified NIK (0.2-1 nM) derived from a baculovirus-infected insect cell expression system was incubated with test compounds for 1-3.5 hours in 50 mM 2-[4-(2-hydroxyethyl)piperazin-1-yl]ethanesulfonic acid buffer (pH 7.2) containing 10 mM MgCl2, 2 mM dithiothreitol, 10 uM ATP, 0.01% Triton X-100, 0.1% gamma-globulins from bovine blood, 1% dimethylsulfoxide (DMSO), 12 ug/mL ADP antibody and 4 nM ADP-AlexaFluor® 633 tracer. Reactions were quenched by the addition of 20 mM 2,2′,2″,2′″-(ethane-1,2-diyldinitrilo)tetraacetic acid and 0.01% Brij 35. The tracer bound to the antibody was displaced by the ADP generated during the NIK reaction, which causes a decrease in fluorescence polarization that was measured by laser excitation at 633 nm with a Fluorescence Correlation Spectroscopy Plus reader (Evotec AG).

[1] abbreviates: purified NIK 0.2-1 nM, 10 uM ATP, Morrison's quadratic equation.

Chain of nuclear factor-kappa B (NF-kB)-inducing kinase (NIK) (Q99558 whole entry): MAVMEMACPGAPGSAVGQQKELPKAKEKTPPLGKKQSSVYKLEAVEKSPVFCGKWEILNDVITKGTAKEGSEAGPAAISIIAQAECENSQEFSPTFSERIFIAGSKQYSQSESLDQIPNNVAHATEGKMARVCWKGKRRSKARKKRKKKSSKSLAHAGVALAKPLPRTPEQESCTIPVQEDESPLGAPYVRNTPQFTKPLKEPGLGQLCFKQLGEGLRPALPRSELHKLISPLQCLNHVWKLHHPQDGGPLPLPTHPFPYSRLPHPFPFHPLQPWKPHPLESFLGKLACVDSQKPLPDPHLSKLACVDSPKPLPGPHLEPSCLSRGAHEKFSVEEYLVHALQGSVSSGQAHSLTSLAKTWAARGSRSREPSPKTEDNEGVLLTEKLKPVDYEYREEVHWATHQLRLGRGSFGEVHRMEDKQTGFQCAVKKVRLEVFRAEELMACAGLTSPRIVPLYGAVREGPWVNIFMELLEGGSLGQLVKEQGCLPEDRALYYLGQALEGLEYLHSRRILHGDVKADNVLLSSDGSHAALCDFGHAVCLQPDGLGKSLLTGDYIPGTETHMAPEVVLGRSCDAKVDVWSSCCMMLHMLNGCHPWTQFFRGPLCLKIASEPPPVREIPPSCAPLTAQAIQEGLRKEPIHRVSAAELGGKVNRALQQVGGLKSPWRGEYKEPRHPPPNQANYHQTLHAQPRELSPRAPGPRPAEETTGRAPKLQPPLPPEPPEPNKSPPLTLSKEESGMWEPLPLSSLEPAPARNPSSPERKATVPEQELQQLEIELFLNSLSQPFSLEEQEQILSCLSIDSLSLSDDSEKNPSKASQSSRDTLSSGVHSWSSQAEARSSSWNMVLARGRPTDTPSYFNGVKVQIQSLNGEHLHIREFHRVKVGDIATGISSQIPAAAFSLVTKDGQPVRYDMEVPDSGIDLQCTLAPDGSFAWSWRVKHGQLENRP

On to `CC(O)(C#Cc1ccc2c(c1)-n1nc(C(N)=O)cc1CCO2)C1CCCO1` (stereo not drawn) [Example 696], for which the Ki under setting [1] is 1 µM.
Still for that read-out and setting: in the case of `NC(=O)c1cn2c(n1)-c1cc(C#CC3(O)CCc4cccnc43)ccc1OCC2` (racemic) it was 0.0051 µM; in that of `CC(O)(C#Cc1cc2c(cc1F)OCCn1cc(C(N)=O)nc1-2)c1ccc(Cl)cn1` (stereo not drawn) [Example 102, 9-[3-(5-chloro-pyridin-2-yl)-3-hydroxy-but-1-ynyl]-8-fluoro-4,5-dihydro-6-oxa-1,3a-diaza-benzo[e]azulene-2-carboxy-lic acid amide], more than 5 µM.
On to `Cn1cc([C@H](O)c2c(C(N)=O)nc3n2CCOc2cc(F)c(C#CC(C)(C)O)cc2-3)cn1`, for which the inhibition constant (Ki) under setting [1] was found to be 0.033 µM.
On to `Cc1nnc(C(C)(O)C#Cc2ccc3c(c2)-c2nc(C(N)=O)cn2CCO3)o1` (stereo not drawn), for which, under setting [1], the inhibition constant Ki came out at 0.028 µM.
The same measure, in the same setting: next, `NC(=O)c1nc2c(s1)CCOc1ccc(C#CC3(O)CCCC3)cc1-2` [Example 4, 9-(1-hydroxy-cyclopentylethynyl)-4,5-di-hydro-6-oxa-3-thia-1-aza-benzo[e]azu-lene-2-carboxylic acid amide]: 0.004 µM; `Cc1cc([C@](C)(O)C#Cc2ccc3c(c2)-n2nc(C(N)=O)cc2C2(CCC2)CO3)no1` [Example 716, (R)-9-(3-hydroxy-3-(5-methylisoxazol-3-yl)but-1-yn-1-yl)-5H-spiro[benzo[b]py-razolo[1,5-d][1,4]oxazepine-4,1′-cyclo-butane]-2-carboxamide]: 0.008 µM.
The same measure, in the same setting: next, `CC(C)(O)C#Cc1cc2c(cc1F)OCCn1c-2nc(C(N)=O)c1C(=O)NC1COC1` (racemic) [Example 59]: 0.006 µM.
In the case of `CC(C)(O)C#Cc1cc2c(cc1F)OCCn1c-2nc(C(N)=O)c1C(O)c1cc(F)cc(F)c1` (racemic) [Example 161], under setting [1], the Ki amounted to 0.0072 µM.
On to `CC(C)(O)C#Cc1ccc2c(c1)-c1nc(C(N)=O)cn1CCO2` [Example 2, 9-(3-hydroxy-3-methyl-but-1-ynyl)-4,5-dihydro-6-oxa-1,3a-diaza-benzo[e]azu-lene-2-carboxylic acid amide], for which, under setting [1], the Ki worked out at 0.319 µM.
Turning to `CC(C)(O)C#Cc1cc2c(cc1F)C1CC(C1)c1sc(C(N)=O)cc1-2` (racemic), the Ki under setting [1] amounted to 0.11 µM.
Turning to `Cc1cc([C@](C)(O)C#Cc2ccc3c(c2)-c2nc(C(N)=O)c(C(=O)NC4CCOCC4)n2CCO3)no1` [Example 712, (R)-10-(3-hydroxy-3-(5-methylisoxazol-3-yl)but-1-yn-1-yl)-N3-(tetrahydro-2H-pyran-4-yl)-5,6-dihydrobenzo[f]imidazo[1,2-d][1,4]oxazepine-2,3-dicarboxamide], the Ki under setting [1] is 1 µM.
In the case of `CN(C)C1COc2cc(F)c(C#CC(C)(C)O)cc2-c2nc(C(N)=O)sc21` (racemic), the inhibition constant Ki under setting [1] was more than 5 µM.
`CC(O)(C#Cc1ccc2c(c1)-c1nc(C(N)=O)cn1C1CC2C1)c1nc[nH]n1` (stereo not drawn): under setting [1], the Ki stood at 0.018 µM.
As for `Cn1cnc(C(C)(O)C#Cc2cc3c(cc2F)OCCn2cc(C(N)=O)nc2-3)c1` (stereo not drawn), the Ki under setting [1] is more than 5 µM.
In the case of `CNC(=O)C(C)(O)C#Cc1cc2c(cc1F)OCCn1cc(C(N)=O)nc1-2` (stereo not drawn), under setting [1], the Ki is 1.4 µM.
Same read-out and setting: next, `CC(C)(O)C#Cc1cc2c(cc1F)OCCn1cc(C(N)=O)nc1-2` [Example 5, 8-fluoro-9-(3-hydroxy-3-methyl-but-1-ynyl)-4,5-dihydro-6-oxa-1,3a-diaza-ben-zo[e]azulene-2-carboxylic acid amide]: 0.034 µM.
The same measure, in the same setting: in the case of `CN1CC[C@@](O)(C#Cc2ccc3c(c2)-c2nc(C(N)=O)c(C(=O)NC4CC4)n2C2CC3C2)C1=O` it was 0.016 µM.
Still for that read-out and setting: next, `Cc1cc([C@](C)(O)C#Cc2cc3c(cc2C)OCCn2cc(C(N)=O)nc2-3)no1` [Example 38, 9-[(R)-3-hydroxy-3-(5-methyl-isoxazol-3-yl)-but-1-ynyl]-8-methyl-4,5-dihydro-6-oxa-1,3a-diaza-benzo[e]azulene-2-car-boxylic acid amide]: 0.062 µM; `CC(C)(O)C#Cc1cc2c(cc1F)C1CC(C1)n1c-2nc(C(N)=O)c1Cc1ccccc1Cl` (racemic): 0.0021 µM.
In the case of `CNC(=O)c1c(C(N)=O)nn2c1CCOc1ccc(C#C[C@@](C)(O)c3cc(C)on3)cc1-2` [Example 548], the Ki turned out to be 0.0014 µM.
In the case of `NC(=O)c1cc2n(n1)-c1cc(C#CC3(O)CCCC3)ccc1OCC21COC1` [Example 715, 9-((1-hydroxycyclopentyl)ethynyl)-5H-spiro[benzo[b]pyrazolo[1,5-d][1,4]oxa-zepine-4,3′-oxetane]-2-carboxamide], the Ki under setting [1] came to 0.1 µM.
In the case of `Cc1cc(C(C)(O)C#Cc2cc3c(cc2Cl)OCCn2cc(C(N)=O)nc2-3)no1` (racemic), under setting [1], the Ki is more than 5 µM.
On the same count and under the same terms, in the case of `NC(=O)c1cn2c(n1)-c1cc(C#CC3(O)CCCC3)ccc1C1CC2C1` [Example 37, 9-[2-(1-hydroxycyclopentyl)ethynyl]-2,5-diazatetra-cyclo[11.1.1.0^2,6.0^7,12]pen-tadeca-3,5,7,9,11-pentaene-4-carboxamide] it was 0.003 µM.
Regarding `CC(=O)N1CCN(Cc2c(C(N)=O)nc3n2C2CC(C2)c2cc(F)c(C#CC(C)(C)O)cc2-3)CC1` (racemic), under setting [1], the Ki came out at 0.026 µM.
The same measure, in the same setting: in the case of `CC(O)(C#Cc1cc2c(cc1F)C1CC(C1)n1cc(C(N)=O)nc1-2)c1ccccn1` (racemic) [Example 160] it was 0.0068 µM; in that of `NC(=O)c1cn2c(n1)-c1cc(C#CC3(O)CC4CCC(C3)N4)ccc1OCC2` (stereo not drawn) [Example 31, 9-(3-hydroxy-8-aza-bicyclo[3.2.1]oct-3-ylethynyl)-4,5-dihydro-6-oxa-1,3a-diaza-benzo[e]azulene-2-carboxylic acid amide], more than 5 µM; in that of `CC(O)(C#Cc1cc2c(cc1F)OCCn1cc(C(N)=O)nc1-2)C(=O)N1CC(C#N)C1` (stereo not drawn) [Example 95], 0.304 µM.
On the same count and under the same terms, next, `CC(O)(C#Cc1cc2c(cc1F)OCCc1sc(C(N)=O)nc1-2)c1ncn[nH]1` (stereo not drawn) [Example 182, 8-fluoro-9-[3-hydroxy-3-(1H-1,2,4-tria-zol-5-yl)but-1-ynyl]-4,5-dihydro-[I]ben-zoxepino[5,4-d]thiazole-2-carboxamide]: 0.0021 µM; `CC(O)(C#Cc1cc2c(cc1F)OCCn1cc(C(N)=O)nc1-2)c1cnccn1` (stereo not drawn) [Example 15, 8-fluoro-9-(3-hydroxy-3-pyrazin-2-yl-but-1-ynyl)-4,5-dihydro-6-oxa-1,3a-diaza-benzo[e]azulene-2-carboxylic acid amide]: 0.036 µM.
The same measure, in the same setting: next, `CC(O)(C#Cc1ccc2c(c1)-c1nc(C(N)=O)cn1CCO2)CO` (stereo not drawn) [Example 20]: 0.771 µM.
In the case of `Cn1cc(C(O)c2c(C(N)=O)nc3n2CCOc2cc(F)c(C#CC(C)(C)O)cc2-3)cn1` (stereo not drawn), under setting [1], the Ki worked out at 0.082 µM.
Turning to `CNC(=O)c1c(C(N)=O)nc2n1C1CC(C1)c1cc(F)c(C#C[C@@](C)(O)c3noc(C)n3)cc1-2`, the Ki is 0.051 µM.
On to `CN1CCC(O)(C#Cc2ccc3c(c2)-c2nc(C(N)=O)cn2CCO3)C1` (stereo not drawn) [Example 23, 9-(3-hydroxy-1-methyl-pyrrolidin-3-yl-ethynyl)-4,5-dihydro-6-oxa-1,3a-diaza-benzo[e]azulene-2-carboxylic acid amide], for which the Ki under setting [1] was more than 5 µM.
The same measure, in the same setting: next, `CC(O)(C#Cc1cc2c(cc1F)OCCn1cc(C(N)=O)nc1-2)c1cncnc1` (stereo not drawn) [Example 14, 8-Fluoro-9-(3-hydroxy-3-pyrimidin-5-yl-but-1-ynyl)-4,5-dihydro-6-oxa-1,3a-diaza-benzo[e]azulene-2-carboxylic acid amide]: 0.864 µM; `CC(C)(O)C#Cc1cc2c(cc1F)OCCn1c-2nc(C(N)=O)c1C#N` [Example 33, 3-cyano-8-fluoro-9-(3-hydroxy-3-methyl-but-1-ynyl)-4,5-dihydro-6-oxa-1,3a-diaza-benzo[e]azulene-2-carboxylic acid amide]: 0.172 µM.
Same read-out and setting: in the case of `CN(C)Cc1c(C(N)=O)nc2n1C1CC(C1)c1cc(F)c(C#CC(C)(C)O)cc1-2` (racemic) it was 0.6 µM.
Same read-out and setting: next, `CC(O)(C#Cc1cc2c(cc1F)OCCn1cc(C(N)=O)nc1-2)C(F)(F)F` (stereo not drawn) [Example 56, 8-fluoro-9-(4,4,4-trifluoro-3-hydroxy-3-methyl-but-1-ynyl)-4,5-dihydro-6-oxa-1,3a-diaza-benzo[e]azulene-2-carboxylic acid amide]: 2 µM; `CC(C)(O)C#Cc1ccc2c(c1)-c1nc(C(N)=O)sc1C(C)(O)CO2` (stereo not drawn) [Example 21, 4-hydroxy-9-(3-hydroxy-3-methyl-but-1-ynyl)-4-methyl-4,5-dihydro-6-oxa-3-thia-1-aza-benzo[e]azulene-2-carboxylic acid amide]: 0.094 µM; `CN1CCN(Cc2c(C(N)=O)nc3n2CCOc2ccc(C#CC(C)(C)O)cc2-3)CC1`: 0.95 µM.
For the molecule `CNC(=O)c1c(C(N)=O)nc2n1CCOc1cc(F)c(C#CC(C)(O)CO)cc1-2` (racemic), the inhibition constant Ki under setting [1] is 0.002 µM.
Consider `NC(=O)c1cn2c(n1)-c1cc(C#CC3(O)CC(CO)C3)c(F)cc1OCC2` (stereo not drawn) [Example 76], for which, under setting [1], the Ki turned out to be 2.3 µM.
The same measure, in the same setting: in the case of `CC(C)(C#Cc1ccc2c(c1)-c1nc(C(N)=O)cn1CCO2)CO` [Example 171] it was more than 5 µM; in that of `CN1CC[C@@](O)(C#Cc2cc3c(cc2F)OCC(F)(F)c2sc(C(N)=O)nc2-3)C1=O` [Example 641, 4,4,8-trifluoro-9-[2-[(3R)-3-hydroxy-1-methyl-2-oxo-pyrrolidin-3-yl]ethynyl]-5H-[1]benzoxepino[5,4-d]thiazole-2-carboxamide], 0.0002 µM; in that of `CC(O)(C#Cc1ccc2c(c1)-c1nc(C(N)=O)cn1C1CC2C1)c1ccccn1` (stereo not drawn), 0.0071 µM.

Broadly, the Ki is a measure of affinity in units of concentration, obtained from inhibition or displacement.
